Assay results reported in patent US4486445A, “Justicidin insecticidal and antiviral compounds” (E. I. Du Pont de Nemours and Company, priority 1983, dated 1984).
≈ marks a conversion by molar mass, not a printed value. Where two headings read alike, the source gives them in different places.

Key:
[1] = test system: Human Rhino Virus (HRV-2); experiment: inhibition of HRV-2 in HeLa cells; format: cell-based, Human rhinovirus HRV-2; details: Rhinovirus A; for inhibition at 0.016 µg/mL: HRV2, 0.016 μg/ml; for inhibition at 0.08 µg/mL: HRV2, 0.08 μg/ml; for inhibition at 0.4 µg/mL: HRV2, 0.4 μg/ml; for inhibition at 2 µg/mL: HRV2, 2 μg/ml; for inhibition at 10 µg/mL: HRV2, 10 μg/ml
Aedes egypti larvae = experiment: insecticidal activity against larvae of A. egypti in water; format: in vivo; details: larvae of A. egypti in H2O; for LC50: Aedes, read-out: EC50 (effective kill concentration for 50% of the experimental larvae)
Description: The insecticidal activity of the crude acetone/water extracts of Justicia extensa, prepared according to the isolation procedure described previously, was tested against laboratory cultures of the mosquito species Aedes egypti (Linnaeus) and southern army worm (SAW) Spodoptera eridania (Cramer). Extracts of leaves, branches and roots were employed in each test.
In tests against larvae of A. egypti, 10 mg of the crude plant extract was thoroughly dispersed in 20 ml of water in a test tube to which 10 first instar larvae were added.

[2] = test system: Herpes Type 2-Alabama strain; experiment: plaque formation inhibition, Herpes Type 2 in HeLa cells; format: cell-based; details: for antiviral activity against Herpes Type 2: HeLa cells
Herpes Type 1-strain VR3 = experiment: plaque formation inhibition, Herpes Type 1 in HeLa cells; format: cell-based; details: for antiviral activity against Herpes Type 1: HeLa cells
HeLa cells = format: cell-based
A/JAX inbred mice = experiment: in vivo oral toxicity in A/JAX inbred mice; details: orally, 200 and 100 mg/kg
Description: In vivo toxicity studies of natural and synthetic Justicidin P produced mixed results. […] However, natural and synthetic Justicidin P were toxic to A/JAX inbred mice when administered orally at dosages of 200 and 100 mg/kg.

fish = details: in vivo, cited from earlier work
[3] = test system: mosquito larvae of the species Culex pipiens pallens; details: mixtures with pyrethrin or allethrin; cited from earlier work
IMR-90 cells = details: substantially similar test conditions

| SMILES | inhibition at 0.016 µg/mL ([1]; 400 PFU) [%] | inhibition at 0.08 µg/mL ([1]; 400 PFU) [%] | inhibition at 0.4 µg/mL ([1]; 400 PFU) [%] | inhibition at 2 µg/mL ([1]; 400 PFU) [%] | inhibition at 10 µg/mL ([1]; 400 PFU) [%] | LC50 (Aedes egypti larvae) [µg/mL] | inhibition at 0.016 µg/mL ([1]; 200 PFU) [%] | inhibition at 0.08 µg/mL ([1]; 200 PFU) [%] | inhibition at 0.4 µg/mL ([1]; 200 PFU) [%] | further results |
| --- | --- | --- | --- | --- | --- | --- | --- | --- | --- | --- |
| COc1cc2c(OC)c3c(c(-c4ccc5c(c4)OCO5)c2cc1OC)C(=O)OC3F (racemic) [Compound 14, (±)-9-(1,3-Benzodioxol-5-yl)-3-fluoro-4,6,7-trimethoxynaphtho[2,3-c]furan-1(3H)-one] | 0 | 0 | 0 | 21 | 79 | 0.7 (≈ 1.7 µM) | – | – | – | – |
| COc1cc2c(OC)c3c(c(-c4ccc5c(c4)OCO5)c2cc1OC)C(=O)OC3OC(C)=O (racemic) [Compound 15] | 0 | 0 | 0 | 0 | 72 | 1 (≈ 2.21 µM) | – | – | – | – |
| COc1cc2c(OC)c3c(c(-c4ccc5c(c4)OCO5)c2cc1OC)C(=O)OC3O (racemic) [Compound 16, (±)-9-(1,3-Benzodioxol-5-yl)-3-hydroxy-4,6,7-trimethoxynaphtho[2,3-c]furan-1(3H)-one] | 0 | 0 | 0 | 0 | 98 | 10 (≈ 24.4 µM) | – | – | – | – |
| CCCOC1OC(=O)c2c1c(OC)c1cc(OC)c(OC)cc1c2-c1ccc2c(c1)OCO2 (racemic) [Compound 17, (±)-9-(1,3-Benzodioxol-5-yl)-3-propoxy-4,6,7-trimethoxynaphtho[2,3-c]furan-1(3H)-one] | – | – | – | – | – | 0.8 (≈ 1.77 µM) | ≥ 100 | ≥ 100 | ≥ 100 | inhibition at 2 µg/mL ([1]; 200 PFU): ≥ 74%; inhibition at 0.1 µg/mL ([2]; 0.1 μg/ml, HeLa, read-out: plaque formation inhibition against Type 2 (average)): 91%; antiviral activity against Herpes Type 2 [2]: demonstrated antiviral activity; inhibition at 0.1 µg/mL (Herpes Type 1-strain VR3; 0.1 μg/ml, HeLa, read-out: plaque formation inhibition against Type 1 (average)): 71%; antiviral activity against Herpes Type 1 (Herpes Type 1-strain VR3): demonstrated antiviral activity; cytotoxicity (HeLa cells; 1 μg/ml): cytotoxic |
| COc1cc2c(OC)c3c(c(-c4ccc5c(c4)OCO5)c2cc1OC)C(=O)OC3OC (racemic) [Justicidin P (synthetic), (±)-9-(1,3-Benzodioxol-5-yl)-3,4,6,7-tetramethoxynaphtho[2,3-c]furan-1(3H)-one] | 0 | 0 | 0 | 73 | 43 | 0.01 (≈ 0.0236 µM) | – | – | – | in vivo toxicity (A/JAX inbred mice): toxic |
| CCCCCCCSC1OC(=O)c2c1c(OC)c1cc(OC)c(OC)cc1c2-c1ccc2c(c1)OCO2 (stereo not drawn) [Compound 18] | – | – | – | – | – | – | 80 | ≥ 100 | ≥ 100 | inhibition at 1 µg/mL ([2]; 1 μg/ml, HeLa, read-out: inhibition against Type 2): 16%; inhibition at 4 µg/mL ([2]; 4 μg/ml, HeLa, read-out: inhibition against Type 2): 77%; antiviral activity against Herpes Type 2 [2]: demonstrated antiviral activity; inhibition at 1 µg/mL (Herpes Type 1-strain VR3; 1 μg/ml, HeLa, read-out: inhibition against Type 1): 17%; inhibition at 4 µg/mL (Herpes Type 1-strain VR3; 4 μg/ml, HeLa, read-out: inhibition against Type 1): 81%; antiviral activity against Herpes Type 1 (Herpes Type 1-strain VR3): demonstrated antiviral activity; cytotoxicity (HeLa cells; 64 and 16 μg/ml): cytotoxic |
| COc1cc2c(OC)c3c(c(-c4ccc5c(c4)OCO5)c2cc1OC)C(=O)OC3OC(C)C (stereo not drawn) [Compound 19] | – | – | – | – | – | 0.7 (≈ 1.55 µM) | 100 | ≥ 100 | 107 | inhibition at 2 µg/mL ([1]; 200 PFU): 14%; cytotoxicity (HeLa cells; 1, 4, 16 and 64 μg/ml): demonstrated cytotoxic properties |
| CCCCCCCCCCCCOC1OC(=O)c2c1c(OC)c1cc(OC)c(OC)cc1c2-c1ccc2c(c1)OCO2 (stereo not drawn) [Compound 20] | – | – | – | – | – | – | 0 | 0 | 10 | inhibition at 2 µg/mL ([1]; 200 PFU): 74%; inhibition at 10 µg/mL ([1]; 200 PFU): 83% |
| COc1cc2c(O)c3c(c(-c4ccc5c(c4)OCO5)c2cc1OC)C(=O)OC3 [Diphyllin, 9-(1,3-Benzodioxol-5-yl)-6,7-dimethoxy-4-hydroxynaphtho[2,3-c]furan-1(3H)-one, reference compound] | – | – | – | – | – | – | – | – | – | EC50 (effective kill concentration for 50% of the experimental larvae) (Aedes egypti larvae): not active |
| COc1cc2c(OC)c3c(c(-c4ccc5c(c4)OCO5)c2cc1OC)C(=O)OC3 [Justicidin A, 9-(1,3-Benzodioxol-5-yl)-4,6,7-trimethoxynaphtho[2,3-c]furan-1(3H)-one] | – | – | – | – | – | 10 (≈ 25.4 µM) | – | – | – | piscicidal activity (fish): extraordinary piscicidal activity; piscicidal activity (fish; listed as justicidins A): active piscicidal components; synergistic behavior [3]: synergistic behavior was observed |
| COc1cc2cc3c(c(-c4ccc5c(c4)OCO5)c2cc1OC)C(=O)OC3 [Justicidin B] | – | – | – | – | – | – | – | – | – | piscicidal activity (fish): extraordinary piscicidal activity; piscicidal activity (fish; listed as B): active piscicidal components; synergistic behavior [3]: synergistic behavior was observed |
| Nc1nc2c(ncn2COCCO)c(=O)[nH]1 [acyclovir, 9-(2-hydroxy-ethoxymethyl)guanine, reference compound] | 0 | 0 | 0 | 0 | 0 | – | – | – | – | inhibition of Type 2 plaque formation ([2]; range between 0.5 μg/ml and 8 μg/ml, similar test conditions): 90-99%; inhibition at 8 µg/mL (Herpes Type 1-strain VR3; HeLa, 8 μg/ml, similar test conditions): 90%; sensitivity of IMR-90 cells (IMR-90 cells): sensitive |
